Data taken from paper PMC9027599, “Secondary Metabolites in Basil, Bio-Insecticide, Inhibition Effect, and In Silico Molecular Docking against Proteolytic Enzymes of the Red Palm Weevil (Rhynchophorus ferrugineus)” (Plants, 2022).

How the values were obtained:
total proteases [1] = assay: Total proteolytic activity of fourth instar midgut homogenate, azocasein (in vitro); assay type: biochemical, Rhynchophorus ferrugineus; conditions: fourth instar larvae midgut homogenate
Procedure: (§1) The Lowry technique was used to determine the protein concentrations. Total proteolytic activity was determined in the fourth midgut instar larval (lab strain) homogenate of R. ferrugineus with azocasein in accordance with […] et al. […] [70]. […] Using a Sigma 3k30 cooling centrifuge, reserve homogenates prepared in a previous stage were spun at 5000 rpm for 30 min. Estimates of protein content and total proteolytic enzyme activity were made using the supernatants. The supernatant (10 μL) was incubated at 37 °C for 20 min, and the volume was adjusted to 60 μL using an assay buffer (pH 8), before adding azocasien (200 μL, 2% (w/v)). […] Following that, to activate the reaction, the substrate was introduced 20 min for Leupeptin, so the reaction was halted after 180 min at 37 °C with 300 μL of cool tri-chloroacetic acid (TCA) (10% (v/v). The mixture was centrifuged for 20 min at 5000 rpm (Sigma 3k30 cooling centrifuge). […] To learn more about the proteases found in homogenate preparations of R. ferrugineus fourth midgut larval instars, inhibitors from many different types of mechanisms were used. […] As a control, an assay combination devoid of inhibitors was utilized. The absorbance of the enzymes was determined using an ELISA plate quick reader at various wavelengths. The percentage activity of the control enzyme for each inhibitor was evaluated for each enzyme. […] Larvae were exposed for 24 h to leaf discs treated with extract and compounds.

[2] = test system: trypsin-like serine proteinase; assay: Trypsin-like activity of midgut from larvae treated 24 h (in vivo); design: species or system Rhynchophorus ferrugineus; conditions: midgut of fourth instar larvae treated for 24 h
Procedure: (§2) The midguts were homogenized in the assay buffer (100 mM Tris-HCl, pH 8.1) and centrifuged for 30 min at 8000 rpm (Sigma 3K 30, rotors No. 12158). […] […] (100 mg/mL in DMF), BAρNA (100 mg/mL in DMSO), and […] (100 mg/mL in DMF) stock substrates were diluted in the assay buffer to 1 mg/mL, and substrate volume was 50 μL. […] The activity was quantified using an ELISA plate reader at a wavelength of 405 nm. As an empty well, an assay combination containing a denaturation enzyme was utilized instead of an active enzyme. […] To learn more about the proteases found in homogenate preparations of R. ferrugineus fourth midgut larval instars, inhibitors from many different types of mechanisms were used. […] As a control, an assay combination devoid of inhibitors was utilized. The absorbance of the enzymes was determined using an ELISA plate quick reader at various wavelengths. The percentage activity of the control enzyme for each inhibitor was evaluated for each enzyme. […] Larvae were exposed for 24 h to leaf discs treated with extract and compounds.

metalloprotease = assay: Metalloprotease activity of midgut from larvae treated 24 h (in vivo); design: species or system Rhynchophorus ferrugineus; conditions: midgut of fourth instar larvae treated for 24 h
Procedure: A substrate azocasein assessed the metalloproteinases activity in the fourth midgut instar larval homogenate. Ten larvae were carefully removed, dissected, and rinsed repeatedly with NaCl solution (0.9% (w/v). […] After homogenization, the homogenates were centrifuged at 5000 rpm (for 30 min) using a Sigma centrifuge 3k30, and the supernatant was utilized to determine enzyme activity and protein content. The supernatant per experiment (10 µL) was incubated for 20 min at 37 °C, and the volume was adjusted to 60 µL using assay buffer pH 8 before adding azocasein (200 µL, 2% (w/v)). In all instances, 10 µL enzyme samples were incubated for 10 min (except EDTA with 20 min), and EDTA was used as a blocker of metalloproteinase activity before being added to the specific substrate. The reaction was interrupted with 300 µL of trichloroacetic acid (TCA cold, 10% (v/v) and continued at 37 °C for 180 min. The reaction mixture was then centrifuged at 5000 rpm for 20 min (Sigma centrifuge 3k30), sodium hydroxide (10 µL of 10 N) was incorporated into the supernatant, then absorbance was determined using an ELISA plate reader at 450 nm. As a blank, an assay mixture devoid of the enzyme was devoted, the specific activity was determined using the OD450 mg^−1 protein min^−1 value, and a blank solution sample devoid of enzyme solution was determined. To learn more about the proteases found in homogenate preparations of R. ferrugineus fourth midgut larval instars, inhibitors from many different types of mechanisms were used. […] As a control, an assay combination devoid of inhibitors was utilized. The absorbance of the enzymes was determined using an ELISA plate quick reader at various wavelengths. The percentage activity of the control enzyme for each inhibitor was evaluated for each enzyme. […] Larvae were exposed for 24 h to leaf discs treated with extract and compounds.

total proteases [3] = assay: Total protease activity of midgut from larvae treated 24 h (in vivo); design: species or system Rhynchophorus ferrugineus; conditions: midgut of fourth instar larvae treated for 24 h
Procedure: as §1

[4] = molecular target: trypsin-like serine proteinase; assay: Serine proteinase microplate assay, BApNA (in vitro); assay type: biochemical, Rhynchophorus ferrugineus; conditions: fourth instar larvae midgut homogenate
Procedure: as §2, with “The specific activities of serine proteinase were determined using a rapid quick microplate assay with substrates in reaction mixtures (150 μL) including a serine protease assay buffer, according to […] et al. and Olga et al. with modifications. The midguts” for “The midguts”

Row | Compound | IC50 against total proteases (in vitro) (total proteases [1]) [µg/mL] | IC50 against trypsin-like serine proteinase (in vivo) [2] [µg/mL] | IC50 against metalloprotease (in vivo) (metalloprotease) [µg/mL] | IC50 against total proteases (in vivo) (total proteases [3]) [µg/mL] | IC50 against trypsin-like serine proteinase (in vitro) [4] [µg/mL]
1 | O=C(O)C[C@H](C(=O)O)[C@@H](O)C(=O)O [Isocitric acid] | 143.3 | 314.8 | 169.2 | 486.3 | 
2 | O=C(/C=C/c1ccc(O)c(O)c1)O/C=C\c1ccc(O)c(O)c1 [Nepetoidin B] | 102.4 | 102.7 | 95.8 | 179.4 | 86.7
3 | C[C@@H]1O[C@@H](OC[C@H]2O[C@@H](Oc3c(-c4ccc(O)c(O)c4)oc4cc(O)cc(O)c4c3=O)[C@H](O)[C@@H](O)[C@@H]2O)[C@H](O)[C@H](O)[C@H]1O [Quercetin-3-O-rutinoside] | 82.6 | 325.5 | 612.4 | 286.4 | 104.5
4 | O=C(/C=C/c1ccc(O)c(O)c1)O[C@H](Cc1ccc(O)c(O)c1)C(=O)O [Rosmarinic acid] | 109.6 | 174.6 | 86.7 | 186.2 | 91.3
5 | COc1ccc(-c2cc(=O)c3c(O)c(OC)c(OC)cc3o2)cc1 [Salvigenin, 5-Hydroxy-6,7,4′-trimethoxyflavone] | 72.4 | 241.2 | 113.7 | 164.8 | 59.2
6 | dicaffeoyl-tartaric acid [Chicoric acid] | 63.1 | 75.1 | 74.2 | 146.2 | 51.6
